US6355799B1, “Substituted benzene compounds, process for their preparation, and herbicidal and defoliant compositions containing them” (ISK Americas Incorporated, priority 1997, dated 2002)

Columns and labels:
Assay type in all cases: in vivo
[1] = tested on: green foxtail (Setaria viridis, SETVI); assay: Pre-emerge test, greenhouse herbicide activity screening; conditions: pre-emerge, phytotoxicity rating 0-100 at 14 days after application
From the text: (§1) A standard greenhouse herbicide activity screening system was used to evaluate the herbicidal efficacy and crop safety of these test compounds. Seven broadleaf weed species including redroot pigweed (Amaranthus retroflexus, AMARE, velvetleaf (Abutilon theophrasti, ABUTH), sicklepod (Cassia obtusifolia, CASOB), ivyleaf morningglory (Ipomoea hederacea, IPOHE), lambsquarters (Chenopodium album, CHEAL), common ragweed (Ambrosia artemisizfolia L., AMBEL), and cocklebur (Xanthium strumarium, XANST) were used as test species. Four grass weed species including green foxtail (Setaria viridis, SETVI), barnyardgrass (Echinochloa crus-galli, ECHCG), johnsongrass (Sorghum halepense, SORHA), and large crabgrass (Digitaria sanguinalis, DIGSA) were also used. In addition, three crop species, field corn (Zea mays L., var. Dekalb 535, CORN), soybean (Glycine max L., var. Pella 86, SOY), and is upland rice (Oryza sp., var. Tebonnet, RICE) were included.
(§2) All plants were grown in 10 cm square plastic pots which were filled with a sandy loam soil mix. For pre-emerge tests, seeds were planted one day prior to application of the test compounds. For post-emerge tests, seeds were planted 8-21 days prior to the test to allow emergence and good foliage development prior to application of the test substances. At the time of the post-emerge application, plants of all species were usually at the 2-3 leaf stage of development.
(§3) All test compounds Were dissolved in acetone and applied to the test units in a volume of 187 l /ha. Test materials were applied at rates ranging from 15 g ai/ha to 1000 g ai/ha using a track sprayer equipped with a TJ8001E even flow flat fan spray nozzle. Plants were arranged on a shelf so that the top of the canopy (post-emerge) or top of the soil surface (pre-emerge) was 40-45 cm below the nozzle. Pressurized air was used to force the test solution through the nozzle as it was mechanically advanced (via electrically driven chain drive) over the top of all test plants/pots. This application simulates a typical commercial field herbicide application.
(§4) In the post-emerge test, a commercial non-ionic surfactant was also included (0.25% v/v) to enhance wetting of the leaf surfaces of target plants. Immediately after application, test units of the pre-emerge applications were watered at the soil surface to incorporate the test materials. Subsequently, these test units were bottom-watered. Post-emerge test units were always bottom-watered.
(§5) At 14 days after application of the test materials, phytotoxicity ratings were recorded. A rating scale of 0-100 was used as previously described in Research Methods in Weed Science, 2nd edition, B. Truelove, Ed., Southern Weed Science Society, Auburn University, Auburn, Ala. 1977. Briefly, “0” corresponds to no damage and “100” corresponds to complete death of all plants in the test unit. This scale was used both to determine efficacy against weed species and damage to crop species. Herbicide activity data for various compounds of this invention, which are shown by compound No. in Tables 1-8, are shown in Tables 11 and 12.

[2] = tested on: large crabgrass (Digitaria sanguinalis, DIGSA); assay: as above; conditions: pre-emerge, phytotoxicity rating 0-100 at 14 days after application
From the text: as §1, §2, §3, §4, §5

[3] = tested on: sicklepod (Cassia obtusifolia, CASOB); assay: as above; conditions: pre-emerge, phytotoxicity rating 0-100 at 14 days after application
From the text: as §1, §2, §3, §4, §5

[4] = tested on: ivyleaf morningglory (Ipomoea hederacea, IPOHE); assay: as above; conditions: pre-emerge, phytotoxicity rating 0-100 at 14 days after application
From the text: as §1, §2, §3, §4, §5

[5] = tested on: lambsquarters (Chenopodium album, CHEAL); assay: as above; conditions: pre-emerge, phytotoxicity rating 0-100 at 14 days after application
From the text: as §1, §2, §3, §4, §5

[6] = tested on: barnyardgrass (Echinochloa crus-galli, ECHCG); assay: as above; conditions: pre-emerge, phytotoxicity rating 0-100 at 14 days after application
From the text: as §1, §2, §3, §4, §5

[7] = tested on: velvetleaf (Abutilon theophrasti, ABUTH); assay: as above; conditions: pre-emerge, phytotoxicity rating 0-100 at 14 days after application
From the text: as §1, §2, §3, §4, §5

[8] = tested on: field corn (Zea mays L., var. Dekalb 535, CORN); assay: Pre-emerge test, crop safety; conditions: crop damage, pre-emerge, phytotoxicity rating 0-100 at 14 days after application
Procedure, shortened: (§6)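 Fourteen days after spraying, crop and weed injury was graded visually from 0, no effect, to 100, every plant dead. Test substances were dissolved in acetone and applied at 15–1000 g ai/ha with a flat-fan nozzle. Application was either pre-emergence, one day after sowing, or post-emergence at the 2–3 leaf stage.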

[9] = tested on: upland rice (Oryza sp., var. Tebonnet, RICE); assay: Pre-emerge test, crop safety; conditions: crop damage, pre-emerge, phytotoxicity rating 0-100 at 14 days after application
Procedure, shortened: as §6

[10] = tested on: redroot pigweed (Amaranthus retroflexus, AMARE); assay: Pre-emerge test, greenhouse herbicide activity screening; conditions: pre-emerge, phytotoxicity rating 0-100 at 14 days after application
Procedure, shortened: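 Plants grown in 10 cm pots of sandy loam mix received acetone-dissolved compounds through a moving flat-fan nozzle. Doses ranged from 15 to 1000 g ai/ha. Pre-emerge pots were seeded one day earlier, post-emerge pots 8–21 days earlier. Fourteen days on, each pot was graded 0–100 for damage.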

[11] = tested on: green foxtail (Setaria viridis, SETVI); assay: Post-emerge test, greenhouse herbicide activity screening; conditions: post-emerge, phytotoxicity rating 0-100 at 14 days after application
From the text: as §1, §2, §3, §4, §5

[12] = tested on: large crabgrass (Digitaria sanguinalis, DIGSA); assay: as above; conditions: post-emerge, phytotoxicity rating 0-100 at 14 days after application
From the text: as §1, §2, §3, §4, §5

[13] = tested on: sicklepod (Cassia obtusifolia, CASOB); assay: as above; conditions: post-emerge, phytotoxicity rating 0-100 at 14 days after application
From the text: as §1, §2, §3, §4, §5

[14] = tested on: ivyleaf morningglory (Ipomoea hederacea, IPOHE); assay: as above; conditions: post-emerge, phytotoxicity rating 0-100 at 14 days after application
From the text: as §1, §2, §3, §4, §5

[15] = tested on: redroot pigweed (Amaranthus retroflexus, AMARE); assay: as above; conditions: post-emerge, phytotoxicity rating 0-100 at 14 days after application
From the text: as §1, §2, §3, §4, §5

[16] = tested on: lambsquarters (Chenopodium album, CHEAL); assay: as above; conditions: post-emerge, phytotoxicity rating 0-100 at 14 days after application
From the text: as §1, §2, §3, §4, §5

[17] = tested on: barnyardgrass (Echinochloa crus-galli, ECHCG); assay: as above; conditions: post-emerge, phytotoxicity rating 0-100 at 14 days after application
From the text: as §1, §2, §3, §4, §5

[18] = tested on: velvetleaf (Abutilon theophrasti, ABUTH); assay: as above; conditions: post-emerge, phytotoxicity rating 0-100 at 14 days after application
From the text: as §1, §2, §3, §4, §5

[19] = tested on: field corn (Zea mays L., var. Dekalb 535, CORN); assay: Post-emerge test, crop safety; conditions: post-emerge, crop damage rating 0-100 at 14 days after application
Procedure, shortened: (§7)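 Compounds in acetone were track-sprayed at 15-1000 g ai/ha (187 l/ha) on sandy loam pots: pre-emerge one day after seeding, post-emerge at 2-3 leaf stage with 0.25% v/v non-ionic surfactant. Phytotoxicity was rated 14 days later on a 0 (no damage) to 100 (complete death) scale.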

[20] = tested on: upland rice (Oryza sp., var. Tebonnet, RICE); assay: Post-emerge test, crop safety; conditions: post-emerge, crop damage rating 0-100 at 14 days after application
Procedure, shortened: as §7

Cc1cccc(COC(=O)Nc2c(C)c(Cl)cc(F)c2-n2c(=O)cc(C(F)(F)F)n(C)c2=O)c1 [4-68]
Pre-emerge Herbicidal Activity SETVI ([1]; rate 63 g ai/ha): 100 | Pre-emerge Herbicidal Activity SETVI ([1]; rate 250 g ai/ha): 100 | Pre-emerge Herbicidal Activity DIGSA ([2]; rate 63 g ai/ha): 100 | Pre-emerge Herbicidal Activity DIGSA ([2]; rate 250 g ai/ha): 100 | Pre-emerge Herbicidal Activity CASOB ([3]; rate 63 g ai/ha): 40 | Pre-emerge Herbicidal Activity CASOB ([3]; rate 250 g ai/ha): 100 | Pre-emerge Herbicidal Activity IPOHE ([4]; rate 63 g ai/ha): 40 | Pre-emerge Herbicidal Activity IPOHE ([4]; rate 250 g ai/ha): 100 | Pre-emerge Herbicidal Activity CHEAL ([5]; rate 63 g ai/ha): 100 | Pre-emerge Herbicidal Activity CHEAL ([5]; rate 250 g ai/ha): 100 | Pre-emerge Herbicidal Activity ECHCG ([6]; rate 63 g ai/ha): 60 | Pre-emerge Herbicidal Activity ECHCG ([6]; rate 250 g ai/ha): 98 | Pre-emerge Herbicidal Activity ABUTH ([7]; rate 63 g ai/ha): 100 | Pre-emerge Herbicidal Activity ABUTH ([7]; rate 250 g ai/ha): 100 | Pre-emerge Herbicidal Activity CORN ([8]; rate 63 g ai/ha): 45 | Pre-emerge Herbicidal Activity CORN ([8]; rate 250 g ai/ha): 80 | Pre-emerge Herbicidal Activity RICE ([9]; rate 63 g ai/ha): 50 | Pre-emerge Herbicidal Activity RICE ([9]; rate 250 g ai/ha): 90 | Pre-emerge Herbicidal Activity AMARE ([10]; rate 63 g ai/ha): 100 | Pre-emerge Herbicidal Activity AMARE ([10]; rate 250 g ai/ha): 100 | Post-emerge Herbicidal Activity SETVI ([11]; 63 g ai/ha): 100 | Post-emerge Herbicidal Activity SETVI ([11]; 250 g ai/ha): 100 | Post-emerge Herbicidal Activity DIGSA ([12]; 63 g ai/ha): 75 | Post-emerge Herbicidal Activity DIGSA ([12]; 250 g ai/ha): 90 | Post-emerge Herbicidal Activity CASOB ([13]; 63 g ai/ha): 100 | Post-emerge Herbicidal Activity CASOB ([13]; 250 g ai/ha): 100 | Post-emerge Herbicidal Activity IPOHE ([14]; 63 g ai/ha): 100 | Post-emerge Herbicidal Activity IPOHE ([14]; 250 g ai/ha): 100 | Post-emerge Herbicidal Activity AMARE ([15]; 63 g ai/ha): 100 | Post-emerge Herbicidal Activity AMARE ([15]; 250 g ai/ha): 100 | Post-emerge Herbicidal Activity CHEAL ([16]; 63 g ai/ha): 100 | Post-emerge Herbicidal Activity CHEAL ([16]; 250 g ai/ha): 100 | Post-emerge Herbicidal Activity ECHCG ([17]; 63 g ai/ha): 90 | Post-emerge Herbicidal Activity ECHCG ([17]; 250 g ai/ha): 98 | Post-emerge Herbicidal Activity ABUTH ([18]; 63 g ai/ha): 100 | Post-emerge Herbicidal Activity ABUTH ([18]; 250 g ai/ha): 100 | Post-emerge Herbicidal Activity CORN ([19]; 63 g ai/ha): 95 | Post-emerge Herbicidal Activity CORN ([19]; 250 g ai/ha): 100 | Post-emerge Herbicidal Activity RICE ([20]; 63 g ai/ha): 60 | Post-emerge Herbicidal Activity RICE ([20]; 250 g ai/ha): 80
